Measurements from article PMC5382913, “Interactions of the periplasmic binding protein CeuE with Fe(III) n-LICAM^4− siderophore analogues of varied linker length” (Scientific Reports, 2017).

Columns and labels:
WT CeuE = target: T1, WT CeuE (Campylobacter jejuni, UniProt Q0P8Q4); assay: Intrinsic fluorescence quenching titration, wild type CeuE; conditions: 240 nM protein in 40 mM Tris-HCl pH 7.5, 150 mM NaCl; 1:1 binding model; triplicate
T1 sequence (Q0P8Q4 44-330): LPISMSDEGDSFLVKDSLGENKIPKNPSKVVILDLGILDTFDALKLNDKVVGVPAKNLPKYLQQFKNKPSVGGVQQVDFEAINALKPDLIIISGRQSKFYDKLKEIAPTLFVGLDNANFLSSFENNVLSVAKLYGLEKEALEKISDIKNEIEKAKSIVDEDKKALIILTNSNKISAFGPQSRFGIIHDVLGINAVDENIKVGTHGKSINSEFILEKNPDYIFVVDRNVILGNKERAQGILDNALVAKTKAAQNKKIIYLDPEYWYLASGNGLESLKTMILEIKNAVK
Source text: (§1) The affinities of CeuE for the four Fe-n-Lic complexes were quantified using intrinsic fluorescence quenching, Table 1, with measurements carried out in triplicate. The data were fitted to a 1:1 binding model and analyzed by non-linear regression. […] An attempt to determine the Kd value of Fe-5-Lic by using a more dilute protein solution was unsuccessful because of the inherent decrease in emission intensity reaching the detection limit of the fluorimeter.
(§2) Fluorescence quenching studies with CeuE were carried out on a Hitachi F-4500 fluorescence spectrophotometer as previously reported.
(§3) A 240 nM solution of CeuE in 40 mM Tris-HCl pH 7.5, 150 mM NaCl was prepared and the concentration verified by both the Bradford method and UV-vis absorbance at 280 nm, using the molar absorbance coefficient predicted by ProtParam (15930 mol^−1 dm^3 cm^−1)[43]. The CeuE solution (2 mL) was titrated stepwise with 16 aliquots of a 12 μM Fe-n-Lic solution resulting in a concentration range of Fe-n-Lic of 0 to 1.19 μM. The observed emission intensity was corrected for photomultiplier tube response and buffer subtracted, then integrated between 310 and 410 nm. The data were normalized and analyzed by nonlinear regression using a one-site binding model in DynaFit[26]. Each system was analyzed in triplicate and the average dissociation constants were calculated as reported previously.

CeuE mutant H227A [1] = target: T2, CeuE mutant H227A (Campylobacter jejuni, UniProt Q0P8Q4, H247A); assay: Intrinsic fluorescence quenching titration, CeuE mutant H227A; conditions: 240 nM protein in 40 mM Tris-HCl pH 7.5, 150 mM NaCl; 1:1 binding model; triplicate
T2 sequence (Q0P8Q4 44-330 H247A): T1 sequence (Q0P8Q4 44-330)
Source text: as §1
(§4) The binding studies with wild type CeuE were followed by titrations to determine the ligand affinity of all five mutants. Fe-5-Lic was chosen because of its strong binding to wild type CeuE and because its linker length matches that of natural catecholate siderophores. Mutation of the Fe(III)-coordinating tyrosine led to a drastic drop in binding affinity in both the single (Y228F) and the double mutants (H227L/Y288F and H227A/Y288F), with Kd values above 1 μM. In contrast, the effect of mutating the histidine was less pronounced. […] However, there is an additional entropic contribution to consider.
(§5) Subsequently, titrations were carried out with Fe-4-Lic, Fe-6-Lic and Fe-8-Lic to identify trends in the affinity for mutants H227L and H227A (Fig. 6(b) and (c)) (Table 1). The resulting Kd values show trends similar to that observed for wild type, but with systematically weaker binding.
as §2, §3

CeuE mutant H227L [2] = target: T3, CeuE mutant H227L (Campylobacter jejuni, UniProt Q0P8Q4, H247L); assay: Intrinsic fluorescence quenching titration, CeuE mutant H227L; conditions: 240 nM protein in 40 mM Tris-HCl pH 7.5, 150 mM NaCl; 1:1 binding model; triplicate
T3 sequence (Q0P8Q4 44-330 H247L): T1 sequence (Q0P8Q4 44-330)
Source text: as §1, §4, §5, §2, §3

[3] = target: T4, CeuE double mutant H227L/Y288F (Campylobacter jejuni, UniProt Q0P8Q4, H247L/Y308F); assay: Intrinsic fluorescence quenching titration, CeuE double mutant H227L/Y288F; assay type: binding
T4 sequence (Q0P8Q4 44-330 H247L/Y308F): T1 sequence (Q0P8Q4 44-330)
Protocol: as §4, §2
as §3, with “The observed emission intensity was corrected for photomultiplier tube response and buffer subtracted, then integrated between 310 and 410 nm.” left out

CeuE single mutant Y228F = target: T5, CeuE single mutant Y228F (Campylobacter jejuni, UniProt Q0P8Q4, Y308F); assay: Intrinsic fluorescence quenching titration, CeuE single mutant Y228F; assay type: binding
T5 sequence (Q0P8Q4 44-330 Y308F): T1 sequence (Q0P8Q4 44-330)
Protocol: as §4, §2
as §3, with “The observed emission intensity was corrected for photomultiplier tube response and buffer subtracted, then integrated between 310 and 410 nm.” left out

CeuE mutant H227L [4] = target: T3, CeuE mutant H227L; assay: Circular dichroism of LMCT band, mutant H227L; assay type: binding; conditions: 50 μM in 100 mM TRIS buffer, 150 mM NaCl, 0.5% DMSO, pH 7.5
Source text: (§6) To confirm that the preference for the Λ-configuration is retained in solution, circular dichroism (CD) spectroscopy was used to probe the ligand-to-metal charge transfer (LMCT) band (Fig. 8(a)). The minimum and maximum of the region of the LMCT band at approximately 408 nm and 595 nm, respectively, are indicative of the Λ-configuration[29], with no CD signal observed in the absence of either the protein or ligand, confirming that the protein selectively binds the Λ-configuration.
(§7) The Y228F mutants gave no signal, confirming a lack of Λ-configuration induction, which may indicate a lack of ligand binding. […] Complexes of H227L and H227A were then prepared with all four Fe-n-Lic complexes.
(§8) Solutions of wild type CeuE and mutant proteins were diluted to 5 × 10^−5 M in buffer containing 150 mM NaCl and 0.11 M Tris, adjusted to pH 7.5. […]
(§9) Spectra were recorded using a solution containing 880 μL 0.11 M Tris pH 7.5, 150 mM NaCl buffer, 100 μL (Fe(III)-n-Lic (n = 4, 5, 6, 8) NTA solution and 20 μL to 5 × 10^−5 M CeuE, resulting in a 50:1 excess of ligand to ensure full binding.
(§10) The spectra were recorded from 300–700 nm and buffer subtracted (data pitch […], scan speed 100 nm min^−1, response 2 seconds, bandwidth 2 nm, path length 1 cm). The spectra were recorded 5 times and averaged.

CeuE Y228F mutants = assay: Circular dichroism of LMCT band, Y228F mutants; assay type: binding, Campylobacter jejuni; conditions: 50 μM in 100 mM TRIS buffer, 150 mM NaCl, 0.5% DMSO, pH 7.5
Source text: as §6, §7, §8, §9, §10

[5] = target: T6, CeuE double mutant H227A/Y288F (Campylobacter jejuni, UniProt Q0P8Q4, H247A/Y308F); assay: Intrinsic fluorescence quenching titration, CeuE double mutant H227A/Y288F; assay type: binding
T6 sequence (Q0P8Q4 44-330 H247A/Y308F): T1 sequence (Q0P8Q4 44-330)
Protocol: as §4, §2
as §3, with “The observed emission intensity was corrected for photomultiplier tube response and buffer subtracted, then integrated between 310 and 410 nm.” left out

CeuE mutant H227A [6] = target: T2, CeuE mutant H227A; assay: Circular dichroism of LMCT band, mutant H227A; assay type: binding; conditions: 50 μM in 100 mM TRIS buffer, 150 mM NaCl, 0.5% DMSO, pH 7.5
Source text: as §6, §7, §8, §9, §10

SMILES	Kd (WT CeuE)	Kd (CeuE mutant H227A [1])	Kd (CeuE mutant H227L [2])	Kd [3]	Kd (CeuE single mutant Y228F)	CD signal of Λ-configuration (LMCT band), mutant H227L (CeuE mutant H227L [4])	CD signal of Λ-configuration (LMCT band), Y228F mutants (CeuE Y228F mutants)	Kd [5]	CD signal of Λ-configuration (LMCT band), mutant H227A (CeuE mutant H227A [6])
O=C(NCCCCNC(=O)c1cccc(O)c1O)c1cccc(O)c1O [Fe-4-Lic]	21 ± 6 nM	131 ± 28 nM	90 ± 30 nM						
O=C(NCCCCCNC(=O)c1cccc(O)c1O)c1cccc(O)c1O [Fe-5-Lic]	< 10 nM	35 ± 14 nM	22 ± 10 nM	> 1000 nM	> 1000 nM	Λ-configuration signal was observed	no signal	> 1000 nM	Λ-configuration signal was observed
O=C(NCCCCCCNC(=O)c1cccc(O)c1O)c1cccc(O)c1O [Fe-6-Lic]	33 ± 8 nM	41 ± 7 nM	65 ± 21 nM						
O=C(NCCCCCCCCNC(=O)c1cccc(O)c1O)c1cccc(O)c1O [Fe-8-Lic]	58 ± 8 nM	125 ± 36 nM	112 ± 21 nM						
